# In patent publication US7713706B2, “Method of fixing low-molecular compound to solid-phase support” (RIKEN, priority 2003, dated 2010):
# How the values were obtained:
# [1] = system: anti-digoxin monoclonal antibody clone DI-22-FITC conjugate; assay: Detection of low molecule-protein bonding on low molecule-fixed slide (fluorescent slide scanner, 488 nm); assay type: binding; settings: light of 488 nm; 162 μg/mL anti-digoxin monoclonal antibody clone DI-22-FITC conjugate; room temperature 1 hour; compound fixed on photophilic atomic group-introduced slide
# Method: (§1) On the photophilic atomic group-introduced slide, 0.2 μL of each of solutions of low-molecular compounds (biotin, rhodamine B, digoxin) in DMSO, which had been prepared in concentrations of 100, 10, 1, 0.1 and 0.01 mM, was spotted. The slide was dried in an incubator at 35° C. for 3 hours and further dried with a vacuum pump for 20 hours. […] The slide was then washed while shaking by immersing in ethanol, DMF, THF, ethanol and deionized water in this order (for 1 hour each). Thus, a slide on which low molecules were fixed was produced.
# (§2) Onto the low molecule-fixed slide, a protein solution (162 μg/mL anti-digoxin monoclonal antibody clone DI-22-FITC conjugate, 3.7 μg/mL streptavidin-Alexa Fluor 633 conjugate, 1% (w/v) skimmed milk, 77 mM NaCl, 0.05% (w/v) TWEEN™ 20 (polysorbate 20), 50 mM Tris-HCl, pH 7.5) was added at a rate of […], and then treated at room temperature for 1 hour. The slide was washed while shaking three times with a wash buffer (77 mM NaCl, 0.05% (w/v) TWEEN™ 20 (polysorbate 20), 50 mM Tris-HCl, pH 7.5), rinsed with deionized water, and dehydrated in a dehydration centrifuge (400×g) for 1 minute, The slide was exited with light of 488, 532 and 635 nm, respectively, and the emitted fluorescent light was observed on a fluorescent slide scanner. […]
# [2] = target: streptavidin-Alexa Fluor 633 conjugate (Streptomyces avidinii, UniProt P22629); assay: Detection of low molecule-protein bonding on low molecule-fixed slide (fluorescent slide scanner, 635 nm); assay type: binding; settings: light of 635 nm; 3.7 μg/mL streptavidin-Alexa Fluor 633 conjugate; room temperature 1 hour; compound fixed on photophilic atomic group-introduced slide
# Chain of streptavidin-Alexa Fluor 633 conjugate (P22629 25-183): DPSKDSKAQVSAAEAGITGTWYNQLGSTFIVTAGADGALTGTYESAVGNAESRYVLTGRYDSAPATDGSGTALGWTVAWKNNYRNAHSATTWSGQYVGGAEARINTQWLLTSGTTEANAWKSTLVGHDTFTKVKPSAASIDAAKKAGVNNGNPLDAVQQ
# Method: as §1, §2
Compound,binding of fixed low-molecular compound to protein (fluorescence detected at spotted areas) [1],binding of fixed low-molecular compound to protein (fluorescence detected at spotted areas) [2]
C[C@H]1O[C@@H](O[C@H]2C(O)C[C@H](OC3CC[C@@]4(C)[C@H](CC[C@@H]5[C@@H]4C[C@@H](O)[C@]4(C)[C@@H](C6=CC(=O)OC6)CC[C@]54O)C3)O[C@@H]2C)C[C@H](O)C1O[C@H]1C[C@H](O)[C@H](O)[C@@H](C)O1 (some centres unmarked) [digoxin],bound to the protein,
O=C(O)CCCC[C@@H]1SC[C@@H]2NC(=O)N[C@@H]21 [biotin],,bound to the protein
